The subject of one experiment is HCT-116. Briefly: Cytotoxicity against human HCT116 cells after 48 hrs by MTT assay. Type of experiment: functional, cell-based. The settings on record: HCT-116, 48 h. In general terms: Formazan colour is commonly taken as a measure of viable cells.
Another experiment relates to MCF7. The experiment in a line: Cytotoxicity against human MCF7 cells after 48 hrs by MTT assay. Type of experiment: functional, cell-based. The settings on record: MCF7, 48 h.
Another experiment has as its target T1, Aurora kinase A (Homo sapiens, UniProt O14965).
T1 sequence (O14965 whole entry): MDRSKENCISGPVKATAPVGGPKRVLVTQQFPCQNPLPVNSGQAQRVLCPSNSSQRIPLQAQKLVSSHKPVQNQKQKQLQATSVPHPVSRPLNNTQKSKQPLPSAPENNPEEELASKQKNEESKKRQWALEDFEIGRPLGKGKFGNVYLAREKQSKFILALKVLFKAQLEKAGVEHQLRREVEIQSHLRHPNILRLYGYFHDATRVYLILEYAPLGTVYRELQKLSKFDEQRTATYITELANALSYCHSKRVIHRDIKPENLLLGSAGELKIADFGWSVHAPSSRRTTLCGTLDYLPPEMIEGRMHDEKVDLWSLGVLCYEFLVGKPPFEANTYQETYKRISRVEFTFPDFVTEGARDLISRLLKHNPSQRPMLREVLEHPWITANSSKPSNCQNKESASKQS
The experiment in a line: Inhibition of human recombinant Aurora A kinase using biotinylated peptide substrate preincubated for 15 mins with compound measured after 30 mins by fluorescence analysis.

In experiment [1] the target is T2, Aurora kinase A (Homo sapiens) (UniProt O14965).
T2 sequence (whole entry): T1 sequence (O14965 whole entry)
Briefly: Inhibition of Aurora A kinase in human HCT116 cells at 0.5 to 2 uM by Western blot analysis. Type of experiment: cell-based. The conditions noted are these: HCT-116.

IC50 and inhibition data for 26 compounds are collected here from ChEMBL document CHEMBL2029348, “Synthesis, biological evaluation, and molecular docking studies of N,1,3-triphenyl-1H-pyrazole-4-carboxamide derivatives as anticancer agents” (Bioorg Med Chem Lett, 2012).

Each structure is given as a SMILES string. The source made the active and inactive calls. No cut-off for these calls is given here.

Consider `Cc1ccc(-c2nn(-c3ccccc3)cc2C(=O)Nc2ccc(Br)cc2)cc1`, for which the results for the IC50 in the experiment on HCT-116, in the experiment with MCF7 and at Aurora kinase A were 5350 nM, 6080 nM and 7320 nM, respectively.
For `COc1ccc(NC(=O)c2cn(-c3ccccc3)nc2-c2ccc(C)cc2)cc1`, the figures for the IC50 in the experiment with HCT-116, in the experiment with MCF7 and at Aurora kinase A were 1450 nM, 1620 nM and 1450 nM, respectively.
As for `O=C(Nc1ccc(Br)cc1)c1cn(-c2ccccc2)nc1-c1ccccc1`, the IC50 (usually the concentration needed to halve the response being measured) amounted to 4470 nM in the experiment on HCT-116, 5750 nM with MCF7 and 7250 nM on Aurora kinase A.
For `O=C(Nc1ccccc1)c1cn(-c2ccccc2)nc1-c1ccc(Cl)cc1` the same measures were 2180 nM, 2340 nM and 2100 nM.
The like results for `COc1ccc(NC(=O)c2cn(-c3ccccc3)nc2-c2ccccc2)cc1` were, in that order, 1350 nM, 1710 nM and 1330 nM.
The like results for `COc1ccc(NC(=O)c2cn(-c3ccccc3)nc2-c2ccc(OC)cc2)cc1` were, in that order, 1520 nM, 1770 nM and 1620 nM.
`Cc1cc(Nc2cc(N3CCN(C)CC3)nc(Sc3ccc(NC(=O)C4CC4)cc3)n2)n[nH]1` [TOZASERTIB] registered an IC50 in the experiment on MCF7 of 380 nM.
`Cc1ccc(-c2nn(-c3ccccc3)cc2C(=O)Nc2ccccc2)cc1`: the IC50 in the experiment on HCT-116 was determined as 2360 nM; with MCF7, 2450 nM; at Aurora kinase A, 2650 nM.
`CCOc1ccc(NC(=O)c2cn(-c3ccccc3)nc2-c2ccc(C)cc2)cc1`: the results for the IC50 in the experiment on HCT-116, with MCF7 and on Aurora kinase A were 780 nM, 1030 nM and 650 nM, respectively.
Consider `CCOc1ccc(NC(=O)c2cn(-c3ccccc3)nc2-c2ccc([N+](=O)[O-])cc2)cc1`, for which the half-inhibitory concentration (IC50) was 390 nM in the experiment with HCT-116, 460 nM in the experiment on MCF7 and 160 nM on Aurora kinase A. In experiment [1], the inhibition entry is “Active”.
With `O=C(Nc1ccc(Cl)cc1)c1cn(-c2ccccc2)nc1-c1ccccc1`, the IC50 in the experiment on HCT-116 amounted to 3520 nM; in the experiment with MCF7, 3860 nM; on Aurora kinase A, 3570 nM.
For `O=C(Nc1ccc(Br)cc1)c1cn(-c2ccccc2)nc1-c1ccc([N+](=O)[O-])cc1` the same measures were 4080 nM, 5300 nM and 5520 nM.
For `COc1ccc(-c2nn(-c3ccccc3)cc2C(=O)Nc2ccccc2)cc1` the same measures were 2540 nM, 2530 nM and 2780 nM.
For `O=C(Nc1ccccc1)c1cn(-c2ccccc2)nc1-c1ccc([N+](=O)[O-])cc1` the same measures were 2010 nM, 2260 nM and 2100 nM.
As for `COc1ccc(-c2nn(-c3ccccc3)cc2C(=O)Nc2ccc(Cl)cc2)cc1`, the IC50 is 4060 nM in the experiment with HCT-116, 4350 nM with MCF7 and 5590 nM on Aurora kinase A.
The like results for `Cc1ccc(-c2nn(-c3ccccc3)cc2C(=O)Nc2ccc(Cl)cc2)cc1` were, in that order, 3880 nM, 4010 nM and 4790 nM.
For `CCOc1ccc(NC(=O)c2cn(-c3ccccc3)nc2-c2ccccc2)cc1` the same measures were 620 nM, 880 nM and 420 nM.
In the case of `O=C(Nc1ccccc1)c1cn(-c2ccccc2)nc1-c1ccccc1`, the IC50 is 2310 nM in the experiment with HCT-116, 2340 nM with MCF7 and 2340 nM at Aurora kinase A.
As to `O=C(Nc1ccc(Cl)cc1)c1cn(-c2ccccc2)nc1-c1ccc(Cl)cc1`, the figures for the IC50 with HCT-116, in the experiment with MCF7 and at Aurora kinase A were 2990 nM, 3750 nM and 3180 nM, respectively.
As for `COc1ccc(-c2nn(-c3ccccc3)cc2C(=O)Nc2ccc(Br)cc2)cc1`, the values for the IC50 with HCT-116, in the experiment with MCF7 and at Aurora kinase A were 5870 nM, 8210 nM and 12400 nM, respectively.
On to `O=C(Nc1ccc(Cl)cc1)c1cn(-c2ccccc2)nc1-c1ccc([N+](=O)[O-])cc1`, for which the figures for the IC50 with HCT-116, in the experiment with MCF7 and on Aurora kinase A were 2920 nM, 3240 nM and 3040 nM, respectively.
The like results for `CCOc1ccc(NC(=O)c2cn(-c3ccccc3)nc2-c2ccc(OC)cc2)cc1` were, in that order, 970 nM, 1100 nM and 780 nM.
For `COc1ccc(NC(=O)c2cn(-c3ccccc3)nc2-c2ccc([N+](=O)[O-])cc2)cc1` the same measures were 1020 nM, 1210 nM and 790 nM.
For `O=C(Nc1ccc(Br)cc1)c1cn(-c2ccccc2)nc1-c1ccc(Cl)cc1` the same measures were 4360 nM, 5310 nM and 5710 nM.
With `COc1ccc(NC(=O)c2cn(-c3ccccc3)nc2-c2ccc(Cl)cc2)cc1`, the IC50 in the experiment on HCT-116 was 1330 nM; in the experiment with MCF7, 1550 nM; on Aurora kinase A, 840 nM.
For `CCOc1ccc(NC(=O)c2cn(-c3ccccc3)nc2-c2ccc(Cl)cc2)cc1` the same measures were 420 nM, 560 nM and 220 nM.
